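Compound exposure: 48 hours, 5 concentrations, 96-well plates. The concentration for full growth arrest is given as TGI.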
Experiments:
Experiment in all cases: NCI tumour cell line growth inhibition, 48 h
IGROV1 ovarian = test system: IGROV1 ovarian
SR leukemia = test system: SR leukemia
HL-60(TB) leukemia = test system: HL-60(TB) leukemia
TK-10 renal = test system: TK-10 renal
UO-31 renal = test system: UO-31 renal
NCI-H23 lung = test system: NCI-H23 lung
BT-549 breast = test system: BT-549 breast
KM12 colon = test system: KM12 colon
SNB-75 CNS = test system: SNB-75 CNS
NCI-H226 lung = test system: NCI-H226 lung
SK-MEL-2 melanoma = test system: SK-MEL-2 melanoma
SN12C renal = test system: SN12C renal
U251 CNS = test system: U251 CNS
HCT-116 colon = test system: HCT-116 colon
HOP-92 NSCLC = test system: HOP-92 NSCLC
SK-MEL-28 melanoma = test system: SK-MEL-28 melanoma
COLO 205 colon = test system: COLO 205 colon
SK-MEL-5 melanoma = test system: SK-MEL-5 melanoma
A498 renal = test system: A498 renal
T-47D breast = test system: T-47D breast
SK-OV-3 ovarian = test system: SK-OV-3 ovarian
UACC-62 melanoma = test system: UACC-62 melanoma
SW-620 colon = test system: SW-620 colon
OVCAR-5 ovarian = test system: OVCAR-5 ovarian
PC-3 prostate = test system: PC-3 prostate
786-0 renal = test system: 786-0 renal
UACC-257 melanoma = test system: UACC-257 melanoma
RPMI-8226 leukemia = test system: RPMI-8226 leukemia
M14 melanoma = test system: M14 melanoma
CAKI-1 renal = test system: CAKI-1 renal
K-562 leukemia = test system: K-562 leukemia
LOX IMVI melanoma = test system: LOX IMVI melanoma
OVCAR-8 ovarian = test system: OVCAR-8 ovarian
NCI/ADR-RES ovarian = test system: NCI/ADR-RES ovarian
DU-145 prostate = test system: DU-145 prostate
OVCAR-3 ovarian = test system: OVCAR-3 ovarian
SNB-19 CNS = test system: SNB-19 CNS
HCC-2998 colon = test system: HCC-2998 colon
A549 NSCLC = test system: A549 NSCLC
ACHN renal = test system: ACHN renal
HCT-15 colon = test system: HCT-15 colon
MDA-MB-435 = test system: MDA-MB-435
EKVX NSCLC = test system: EKVX NSCLC
RXF 393 renal = test system: RXF 393 renal
OVCAR-4 ovarian = test system: OVCAR-4 ovarian
MCF7 breast = test system: MCF7 breast
NCI-H460 lung = test system: NCI-H460 lung
MDA-N = test system: MDA-N
HOP-62 NSCLC = test system: HOP-62 NSCLC
SF-295 CNS = test system: SF-295 CNS
CCRF-CEM leukemia = test system: CCRF-CEM leukemia
MOLT-4 leukemia = test system: MOLT-4 leukemia

Measured: TGI

CC1(C)C2CCC(N)(C2)C1N (configuration not stated)
> 100 µM: IGROV1 ovarian | SR leukemia | HL-60(TB) leukemia | TK-10 renal | UO-31 renal | NCI-H23 lung | BT-549 breast | KM12 colon | SNB-75 CNS | NCI-H226 lung | SK-MEL-2 melanoma | SN12C renal | U251 CNS | HCT-116 colon | HOP-92 NSCLC | SK-MEL-28 melanoma | COLO 205 colon | SK-MEL-5 melanoma | A498 renal | T-47D breast | SK-OV-3 ovarian | UACC-62 melanoma | SW-620 colon | OVCAR-5 ovarian | PC-3 prostate | 786-0 renal | UACC-257 melanoma | RPMI-8226 leukemia | M14 melanoma | CAKI-1 renal | K-562 leukemia | LOX IMVI melanoma | OVCAR-8 ovarian | NCI/ADR-RES ovarian | DU-145 prostate | OVCAR-3 ovarian | SNB-19 CNS | HCC-2998 colon | A549 NSCLC | ACHN renal | HCT-15 colon | MDA-MB-435 | EKVX NSCLC | RXF 393 renal | OVCAR-4 ovarian | MCF7 breast | NCI-H460 lung | MDA-N | HOP-62 NSCLC | SF-295 CNS | CCRF-CEM leukemia | MOLT-4 leukemia
